Measured values from ChEMBL document CHEMBL1130927, “Novel imidazole derivatives with subtype-selective antimuscarinic activity (2)” (Bioorg Med Chem Lett, 1998).

Tests used:
[1] = target: Muscarinic acetylcholine receptor M3 (Cavia porcellus) (UniProt Q8VH26); assay: Antimuscarinic activity against M3 receptor of guinea pig ileum; type: tissue-based
[2] = system: Muscarinic acetylcholine receptors; M2 & M3; assay: Selectivity ratio was calculated between Kb values at M2 and M3 muscarinic receptors; type: protein assay; settings: Cavia porcellus
[3] = target: Muscarinic acetylcholine receptor M2 (Cavia porcellus); assay: Antimuscarinic activity against M2 receptor of guinea pig atrium; settings: Cardiac atrium

Chain of Muscarinic acetylcholine receptor M3 (Cavia porcellus) (Q8VH26 1-587): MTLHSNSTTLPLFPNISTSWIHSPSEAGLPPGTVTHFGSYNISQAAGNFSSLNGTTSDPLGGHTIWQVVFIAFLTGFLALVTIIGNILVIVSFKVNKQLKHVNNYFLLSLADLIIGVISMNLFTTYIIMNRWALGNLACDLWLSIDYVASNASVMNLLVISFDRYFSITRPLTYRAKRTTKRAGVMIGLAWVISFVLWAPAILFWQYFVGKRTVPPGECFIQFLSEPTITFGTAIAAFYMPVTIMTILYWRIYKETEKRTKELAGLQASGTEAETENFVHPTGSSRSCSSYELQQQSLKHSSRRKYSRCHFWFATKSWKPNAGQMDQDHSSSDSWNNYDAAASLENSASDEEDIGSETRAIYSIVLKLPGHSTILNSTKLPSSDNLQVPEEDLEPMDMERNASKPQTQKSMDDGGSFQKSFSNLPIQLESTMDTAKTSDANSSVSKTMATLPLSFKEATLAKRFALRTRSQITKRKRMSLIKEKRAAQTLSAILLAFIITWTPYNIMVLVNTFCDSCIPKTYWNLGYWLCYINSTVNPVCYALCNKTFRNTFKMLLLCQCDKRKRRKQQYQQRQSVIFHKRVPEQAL

| Kb [1] [nM] | Ratio [2] | Kb [3] [nM] | Compound |
| --- | --- | --- | --- |
| > 1000 |  |  | COC(=O)C(CCn1ccnc1C)(c1ccccc1)c1ccccc1 |
| 1.14 | 17.6 | 20.1 | Cc1nccn1CCCC(C(N)=O)(c1ccccc1)c1ccccc1 |
| 5150 | 1.14 | 5870 | CNC(=O)C(CCn1ccnc1C)(c1ccccc1)c1ccccc1 |
| 43.7 | 3.39 | 148 | Cc1nccn1CCCCC(C(N)=O)(c1ccccc1)c1ccccc1 |
| 16.7 | 3 | 50.1 | Cc1nccn1CCC(O)(c1ccccc1)c1ccccc1 |
| 71.3 | 9.96 | 710 | Cc1nccn1CCCCCC(C(N)=O)(c1ccccc1)c1ccccc1 |
| 6.95 | 11.9 | 82.7 | Cc1nccn1CCC(C(=O)O)(c1ccccc1)c1ccccc1 |
| 24.6 | 30.3 | 743 | Cc1ccc(C(CCn2ccnc2C)(C(N)=O)c2ccccc2)cc1 (stereo unspecified) |
|  | 13 |  | Cc1nccn1CCC(C(N)=O)(c1ccccc1)c1ccccc1 |
| 258 | 1.85 | 478 | Cc1nccn1CCC(C(=O)N(C)C)(c1ccccc1)c1ccccc1 |

Second part, the molecule before the results:

| Compound | Kb [1] [nM] | Ratio [2] | Kb [3] [nM] |
| --- | --- | --- | --- |
| Cc1nccn1CCC(C(N)=O)(c1ccccc1)C(C)C (stereo unspecified) | 394 |  |  |
| Cc1nccn1CCC(C(N)=O)(c1ccccc1)C1CCCCC1 (stereo unspecified) | 19 | 31.7 | 603 |
| Cc1nccn1C(C)CC(C(N)=O)(c1ccccc1)c1ccccc1 (stereo unspecified) | 16.9 | 10.3 | 174 |
| Cc1nccn1CCC(C(N)=O)(c1ccc(F)cc1)c1ccc(F)cc1 | 9.85 | 16.3 | 161 |
| Cc1nccn1CCC(C#N)(c1ccccc1)c1ccccc1 | 10.4 | 1.49 | 15.5 |
| Cc1nccn1CCC(C(N)=O)C1c2ccccc2CCc2ccccc21 (stereo unspecified) | 2140 |  |  |
| Cc1nccn1CCC(CO)(c1ccccc1)c1ccccc1 | 25.4 | 3.3 | 83.8 |
| Cc1nccn1CCC(C(N)=O)C1c2ccccc2Oc2ccccc21 (stereo unspecified) | > 300 |  |  |
| Cc1nccn1CCC(C)(C(N)=O)c1ccccc1 (stereo unspecified) | 1830 |  |  |
| Cc1nccn1CCC(C(N)=O)(c1ccccc1)c1ccccn1 (stereo unspecified) | 2.86 | 17.5 | 50.1 |
| Cc1nccn1CC(C)C(C(N)=O)(c1ccccc1)c1ccccc1 (stereo unspecified) | 2.89 | 15.6 | 45.1 |
